Key:
[1] = system: luciferase expression in the liver (FLuc mRNA); experiment: Luciferase mRNA in vivo evaluation using lipid nanoparticle compositions (liver luciferase expression); set-up: species or system mice; conditions: LNP 50/10/38.5/1.5 (PEG-DMA) or 47.5/10/40.8/1.7, tail vein injection, liver 4 hours after administration; for Liver Luc @ 0.5 mg/kg (ng luc/g liver): 0.5 mg mRNA/kg; for Liver Luc @ 0.3 mg/kg (ng luc/g liver): 0.3 mg mRNA/kg; for Liver Luc @ 1.0 mg/kg (ng luc/g liver): 1.0 mg mRNA/kg
Method: Lipid nanoparticles are prepared and tested according to the general procedures described in PCT Pub. Nos. WO 2015/199952 and WO 2017/004143, the full disclosures of which are incorporated herein by reference. Briefly, cationic lipid, DSPC, cholesterol and PEG-lipid are solubilized in ethanol at a molar ratio of about 50:10:38.5:1.5 or about 47.5:10:40.8:1.7. Lipid nanoparticles (LNP) are prepared at a total lipid to mRNA weight ratio of approximately 10:1 to 30:1. The mRNA is diluted to 0.2 mg/mL in 10 to 50 mM citrate or acetate buffer, pH 4. Syringe pumps are used to mix the ethanolic lipid solution with the mRNA aqueous solution at a ratio of about 1:5 to 1:3 (vol/vol) with total flow rates above 15 mL/min. The ethanol is then removed and the external buffer replaced with PBS by dialysis. Finally, the lipid nanoparticles are filtered through a 0.2 μm pore sterile filter. Lipid nanoparticle particle size is approximately 55-95 nm diameter, and in some instances approximately 70-90 nm diameter as determined by quasi-elastic light scattering using a Malvern Zetasizer Nano ZS (Malvern, UK).
Studies are performed in 6-8 week old female C57BL/6 mice (Charles River) or 8-10 week old CD-1 (Harlan) mice (Charles River) according to guidelines established by an institutional animal care committee (ACC) and the Canadian Council on Animal Care (CCAC). Varying doses of mRNA-lipid nanoparticle are systemically administered by tail vein injection and animals euthanized at a specific time point (e.g., 4 hours) post-administration. Liver and spleen are collected in pre-weighed tubes, weights determined, immediately snap frozen in liquid nitrogen and stored at −80° C. until processing for analysis.
For liver, approximately 50 mg is dissected for analyses in a 2 mL FastPrep tubes (MP Biomedicals, Solon Ohio). ¼″ ceramic sphere (MP Biomedicals) is added to each tube and 500 μL of Glo Lysis Buffer—GLB (Promega, Madison Wis.) equilibrated to room temperature is added to liver tissue. Liver tissues are homogenized with the FastPrep24 instrument (MP Biomedicals) at 2×6.0 m/s for 15 seconds. Homogenate is incubated at room temperature for 5 minutes prior to a 1:4 dilution in GLB and assessed using SteadyGlo Luciferase assay system (Promega). Specifically, 50 μL of diluted tissue homogenate is reacted with 50 μL of SteadyGlo substrate, shaken for 10 seconds followed by 5 minute incubation and then quantitated using a CentroXS^3 LB 960 luminometer (Berthold Technologies, Germany). The amount of protein assayed is determined by using the BCA protein assay kit (Pierce, Rockford Ill.). Relative luminescence units (RLU) are then normalized to total ug protein assayed. To convert RLU to ng luciferase a standard curve is generated with QuantiLum Recombinant Luciferase (Promega).
The FLuc mRNA (L-6107 or L-7202) from Trilink Biotechnologies will express a luciferase protein, originally isolated from the firefly, photinus pyralis. FLuc is commonly used in mammalian cell culture to measure both gene expression and cell viability. It emits bioluminescence in the presence of the substrate, luciferin. This capped and polyadenylated mRNA is fully substituted with respect to uridine and/or cytidine nucleosides.
The cationic lipids shown in Table 2 have previously been tested with nucleic acids. For comparative purposes, these lipids were also used to formulate lipid nanoparticles containing the FLuc mRNA (L-6107) using an in line mixing method, as described in Example 1 and in PCT/US10/22614, which is hereby incorporated by reference in its entirety. Lipid nanoparticles were formulated using the following molar ratio: 50% Cationic lipid/10% distearoylphosphatidylcholine (DSPC)/38.5% Cholesterol/1.5% PEG lipid (“PEG-DMG”, i.e., 1-(monomethoxy-polyethyleneglycol)-2,3-dimyristoylglycerol, with an average PEG molecular weight of 2000). In alternate embodiments, cationic lipid, DSPC, cholesterol and PEG-lipid are formulated at a molar ratio of approximately 47.5:10:40.8:1.7. […]

[2] = Determination of pKa of formulated lipids (TNS fluorescence assay in lipid nanoparticles); assay type: physicochemical; conditions: cationic lipid formulated in lipid nanoparticles (cationic lipid/DSPC/cholesterol/PEG-lipid 50/10/38.5/1.5 mol %); pH of half-maximal TNS fluorescence
Method: As described elsewhere, the pKa of formulated cationic lipids is correlated with the effectiveness of LNPs for delivery of nucleic acids (see Jayaraman et al, Angewandte Chemie, International Edition (2012), 51(34), 8529-8533; Semple et al, Nature Biotechnology 28, 172-176 (2010)). The preferred range of pKa is ˜5 to ˜7. […] Lipid nanoparticles comprising cationic lipid/DSPC/cholesterol/PEG-lipid (50/10/38.5/1.5 mol %) in PBS at a concentration of 0.4 mM total lipid are prepared using the in-line process as described in Example 1. TNS is prepared as a 100 μM stock solution in distilled water. Vesicles are diluted to 24 μM lipid in 2 mL of buffered solutions containing, 10 mM HEPES, 10 mM MES, 10 mM ammonium acetate, 130 mM NaCl, where the pH ranged from 2.5 to 11. An aliquot of the TNS solution is added to give a final concentration of 1 μM and following vortex mixing fluorescence intensity is measured at room temperature in a SLM Aminco Series 2 Luminescence Spectrophotometer using excitation and emission wavelengths of 321 nm and 445 nm. A sigmoidal best fit analysis is applied to the fluorescence data and the pKa was measured as the pH giving rise to half-maximal fluorescence intensity.

**Q.** Which “Liver Luc @ 0.5 mg/kg (ng luc/g liver)” value [1] does the source give for `CCCCCCCCC(CCCCCC)CN(CCCNC)CC(CCCCCC)CCCCCCCC` (stereo not drawn) [Compound 17] here?
**A.** 12 ± 5 ng luc/g liver

**Q.** And the pKa [2]?
**A.** 6.49

**Q.** With `CCCCCCCCC(CCCCCC)CN(CCCCCN(C)C)CC(CCCCCC)CCCCCCCC` (stereo not drawn) [Compound 5] as the compound, how does the “Liver Luc @ 0.3 mg/kg (ng luc/g liver)” value [1] read?
**A.** 2840 ± 757 ng luc/g liver

**Q.** What about the “Liver Luc @ 1.0 mg/kg (ng luc/g liver)” value [1] of the same compound?
**A.** 13739 ± 7631 ng luc/g liver

**Q.** What about the pKa [2] of the same compound?
**A.** 5.77

**Q.** With `CCCCCCCCC(CCCCCC)CN(CCCCN(C)C)CC(CCCCCC)CCCCCCCC` (stereo not drawn) [Compound 4] as the compound, how does the “Liver Luc @ 0.3 mg/kg (ng luc/g liver)” value [1] read?
**A.** 87 ± 11 ng luc/g liver

**Q.** And the “Liver Luc @ 1.0 mg/kg (ng luc/g liver)” value [1]?
**A.** 233 ± 121 ng luc/g liver

**Q.** And the pKa [2]?
**A.** 5.55

**Q.** With `CCCCCCCCC(CCCCCC)CN(CCCCCCN(C)C)CC(CCCCCC)CCCCCCCC` (stereo not drawn) [Compound 15] as the compound, how does the “Liver Luc @ 0.5 mg/kg (ng luc/g liver)” value [1] read?
**A.** 2417 ± 833 ng luc/g liver

**Q.** And the pKa [2]?
**A.** 5.91

**Q.** With `CCCCCCCCC(CCCCCC)CN(CCCCCN(CCO)CCO)CC(CCCCCC)CCCCCCCC` (stereo not drawn) [Compound 16] as the compound, how does the “Liver Luc @ 0.5 mg/kg (ng luc/g liver)” value [1] read?
**A.** 52 ± 26 ng luc/g liver

**Q.** And the pKa [2]?
**A.** 5.87

From US11357856B2, “Lipids for delivery of active agents” (Acuitas Therapeutics, Inc., priority 2017, dated 2022)
